Measured values reported in patent US20220041606A1, “POSITIVE ALLOSTERIC MODULATORS OF THE MUSCARINIC ACETYLCHOLINE RECEPTOR M1” (Vanderbilt University, priority 2020, published 2022).

Key:
human mAChR M1 [1] = target: T1, human mAChR M1 (Homo sapiens, UniProt P11229); test: mAChR M1 cell-based functional assay (calcium mobilization), PAM activity: increase in the EC20 acetylcholine response; conditions: CHO-K1 cells expressing hM1; potentiation of EC20 acetylcholine response
T1 construct: host or cells: CHO-K1 cells (ATCC), stably transfected using Lipofectamine2000
T1 sequence (P11229 1-460): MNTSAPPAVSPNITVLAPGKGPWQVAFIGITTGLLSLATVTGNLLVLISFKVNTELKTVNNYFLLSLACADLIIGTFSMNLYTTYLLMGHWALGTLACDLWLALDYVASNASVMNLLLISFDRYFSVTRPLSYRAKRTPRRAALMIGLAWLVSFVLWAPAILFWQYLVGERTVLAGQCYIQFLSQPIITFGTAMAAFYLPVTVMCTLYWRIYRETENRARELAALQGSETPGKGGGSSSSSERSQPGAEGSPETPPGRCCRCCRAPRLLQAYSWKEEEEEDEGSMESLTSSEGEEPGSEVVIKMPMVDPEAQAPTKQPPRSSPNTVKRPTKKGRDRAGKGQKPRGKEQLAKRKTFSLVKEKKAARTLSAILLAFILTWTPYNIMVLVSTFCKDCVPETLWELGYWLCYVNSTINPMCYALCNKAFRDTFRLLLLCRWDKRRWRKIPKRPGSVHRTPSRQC
Procedure, shortened: (§1)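 Fluorescence ratio calcium read-out (Fluo-4 AM, FDSS 6000) in human M1-expressing CHO-K1 cells. Agonist activity taken as concentration-dependent rise after compound addition; potentiation as enhancement of a subsequent EC20 acetylcholine challenge. Curves from 11-point threefold dilutions fitted by four-parameter logistic; Emax expressed versus acetylcholine maximum.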

human mAChR M1 [2] = target: T1, human mAChR M1; test: mAChR M1 cell-based functional assay (calcium mobilization), agonist activity upon compound addition; conditions: CHO-K1 cells expressing hM1; for EC50: compound alone, before acetylcholine addition; for Emax: relative to the maximum for acetylcholine
Procedure, shortened: as §1

Row | SMILES | EC50 (human mAChR M1 [1]) [µM] | Emax (human mAChR M1 [1]) [%] | EC50 (human mAChR M1 [2]) [µM] | Emax (human mAChR M1 [2]) [%]
1 | Cn1cc2c(-c3cc(F)c(Cn4cc(C(=O)N[C@H]5CC[C@@H]5O)c5nccnc5c4=O)c(F)c3)cccc2n1 [Compound A69, 6-(2,6-difluoro-4-(2-methyl-2H-indazol-4-yl)benzyl)-N-((1S,2S)-2-hydroxycyclobutyl)-5-oxo-5,6-dihydropyrido[3,4-b]pyrazine-8-carboxamide] | 3.89 | 57 | > 10 | < 5
2 | Cn1cc2c(-c3cc(F)c(Cn4cc(C(=O)NC5CCOCC5)c5nccnc5c4=O)c(F)c3)cccc2n1 [Compound A70, 6-(2,6-difluoro-4-(2-methyl-2H-indazol-4-yl)benzyl)-5-oxo-N-(tetrahydro-2H-pyran-4-yl)-5,6-dihydropyrido[3,4-b]pyrazine-8-carboxamide] | 5.5 | 45 | > 10 | < 5
3 | Cn1cc2c(-c3cc(F)c(Cn4cc(C(=O)NC5(CO)CCOC5)c5nccnc5c4=O)c(F)c3)cccc2n1 (stereo not drawn) [Compound A72, 6-(2,6-difluoro-4-(2-methyl-2H-indazol-4-yl)benzyl)-N-(3-(hydroxymethyl)tetrahydrofuran-3-yl)-5-oxo-5,6-dihydropyrido[3,4-b]pyrazine-8-carboxamide] | ≥ 10 | 32 | > 10 | < 5
4 | Cn1cc2c(-c3cc(F)c(Cn4cc(C(=O)NCC(C)(C)O)c5nccnc5c4=O)c(F)c3)cccc2n1 [Compound A73, 6-(2,6-difluoro-4-(2-methyl-2H-indazol-4-yl)benzyl)-N-(2-hydroxy-2-methylpropyl)-5-oxo-5,6-dihydropyrido[3,4-b]pyrazine-8-carboxamide] | 4.04 | 67 | > 10 | < 5
5 | Cn1cc2c(-c3cc(F)c(Cn4cc(C(=O)NCC(O)C(F)(F)F)c5nccnc5c4=O)c(F)c3)cccc2n1 (stereo not drawn) [Compound A74, 6-(2,6-difluoro-4-(2-methyl-2H-indazol-4-yl)benzyl)-5-oxo-N-(3,3,3-trifluoro-2-hydroxypropyl)-5,6-dihydropyrido[3,4-b]pyrazine-8-carboxamide] | 3.81 | 53 | > 10 | < 5
6 | CC[C@H](C)[C@@H](CO)NC(=O)c1cn(Cc2c(F)cc(-c3cccc4nn(C)cc34)cc2F)c(=O)c2nccnc12 [Compound A76, 6-(2,6-difluoro-4-(2-methyl-2H-indazol-4-yl)benzyl)-N-((2S,3S)-1-hydroxy-3-methylpentan-2-yl)-5-oxo-5,6-dihydropyrido[3,4-b]pyrazine-8-carboxamide] | 4.33 | 53 | > 10 | < 5
7 | Cn1cc(-c2ccc(Cn3cc(C(=O)N[C@H]4CCOC[C@@H]4O)c4nccnc4c3=O)c(F)c2)cn1 [Compound A77, 6-(2-fluoro-4-(1-methyl-1H-pyrazol-4-yl)benzyl)-N-((3R,4S)-3-hydroxytetrahydro-2H-pyran-4-yl)-5-oxo-5,6-dihydropyrido[3,4-b]pyrazine-8-carboxamide] | 4.21 | 72 | – | 18
8 | Cn1cc(-c2ccc(Cn3cc(C(=O)N[C@H]4CCC[C@@H]4O)c4nccnc4c3=O)c(F)c2)cn1 [Compound A79, 6-(2-fluoro-4-(1-methyl-1H-pyrazol-4-yl)benzyl)-N-((1S,2S)-2-hydroxycyclopentyl)-5-oxo-5,6-dihydropyrido[3,4-b]pyrazine-8-carboxamide] | ≥ 10 | 51 | > 10 | < 5
9 | Cn1cc(-c2ccc(Cn3cc(C(=O)NCC(C)(C)O)c4nccnc4c3=O)c(F)c2)cn1 [Compound A80, 6-(2-fluoro-4-(1-methyl-1H-pyrazol-4-yl)benzyl)-N-(2-hydroxy-2-methylpropyl)-5-oxo-5,6-dihydropyrido[3,4-b]pyrazine-8-carboxamide] | ≥ 10 | 30 | > 10 | < 5
10 | Cn1cc(-c2ccc(Cn3cc(C(=O)NCC(O)C(F)(F)F)c4nccnc4c3=O)c(F)c2)cn1 (stereo not drawn) [Compound A81, 6-(2-fluoro-4-(1-methyl-1H-pyrazol-4-yl)benzyl)-5-oxo-N-(3,3,3-trifluoro-2-hydroxypropyl)-5,6-dihydropyrido[3,4-b]pyrazine-8-carboxamide] | ≥ 10 | 33 | > 10 | < 5
11 | CC(C)[C@@H](CO)NC(=O)c1cn(Cc2ccc(-c3cnn(C)c3)cc2F)c(=O)c2nccnc12 [Compound A82, (S)-6-(2-fluoro-4-(1-methyl-1H-pyrazol-4-yl)benzyl)-N-(1-hydroxy-3-methylbutan-2-yl)-5-oxo-5,6-dihydropyrido[3,4-b]pyrazine-8-carboxamide] | ≥ 10 | 26 | > 10 | < 5
12 | CC[C@H](C)[C@@H](CO)NC(=O)c1cn(Cc2ccc(-c3cnn(C)c3)cc2F)c(=O)c2nccnc12 [Compound A83, 6-(2-fluoro-4-(1-methyl-1H-pyrazol-4-yl)benzyl)-N-((2S,3S)-1-hydroxy-3-methylpentan-2-yl)-5-oxo-5,6-dihydropyrido[3,4-b]pyrazine-8-carboxamide] | ≥ 10 | 26 | > 10 | < 5
13 | Cn1cc2c(-c3cc(F)c(Cn4cc(C(=O)N[C@H]5CCOC[C@@H]5O)c5ncncc5c4=O)c(F)c3)cccc2n1 [Compound A84, 6-(2,6-difluoro-4-(2-methyl-2H-indazol-4-yl)benzyl)-N-((3R,4S)-3-hydroxytetrahydro-2H-pyran-4-yl)-5-oxo-5,6-dihydropyrido[4,3-d]pyrimidine-8-carboxamide] | ≥ 10 | 40 | > 10 | < 5
14 | Cn1cc2c(-c3cc(F)c(Cn4cc(C(=O)N[C@H]5CCCCC[C@@H]5O)c5ncncc5c4=O)c(F)c3)cccc2n1 [Compound A85, 6-(2,6-difluoro-4-(2-methyl-2H-indazol-4-yl)benzyl)-N-((1S,2S)-2-hydroxycycloheptyl)-5-oxo-5,6-dihydropyrido[4,3-d]pyrimidine-8-carboxamide] | ≥ 10 | 41 | > 10 | < 5

These reach a lower EC50 (human mAChR M1 [1]). Values come first.

Row | EC50 (human mAChR M1 [1]) [µM] | Emax (human mAChR M1 [1]) [%] | EC50 (human mAChR M1 [2]) [µM] | Emax (human mAChR M1 [2]) [%] | SMILES
15 | 0.62 | 77 | 5 | 46 | Cn1cc2c(-c3cc(F)c(Cn4cc(C(=O)N[C@H]5CCCCC[C@@H]5O)c5nccnc5c4=O)c(F)c3)cccc2n1 [Compound A67, 6-(2,6-difluoro-4-(2-methyl-2H-indazol-4-yl)benzyl)-N-((1S,2S)-2-hydroxycycloheptyl)-5-oxo-5,6-dihydropyrido[3,4-b]pyrazine-8-carboxamide]
16 | 1.2 | 74 | – | 8 | Cn1cc2c(-c3cc(F)c(Cn4cc(C(=O)N[C@H]5CCC[C@@H]5O)c5nccnc5c4=O)c(F)c3)cccc2n1 [Compound A68, 6-(2,6-difluoro-4-(2-methyl-2H-indazol-4-yl)benzyl)-N-((1S,2S)-2-hydroxycyclopentyl)-5-oxo-5,6-dihydropyrido[3,4-b]pyrazine-8-carboxamide]
17 | 3.1 | 57 | > 10 | < 5 | Cn1cc2c(-c3cc(F)c(Cn4cc(C(=O)NC5CC6(COC6)C5)c5nccnc5c4=O)c(F)c3)cccc2n1 [Compound A71, 6-(2,6-difluoro-4-(2-methyl-2H-indazol-4-yl)benzyl)-5-oxo-N-(2-oxaspiro[3.3]heptan-6-yl)-5,6-dihydropyrido[3,4-b]pyrazine-8-carboxamide]
18 | 3.54 | 56 | > 10 | < 5 | CC(C)[C@@H](CO)NC(=O)c1cn(Cc2c(F)cc(-c3cccc4nn(C)cc34)cc2F)c(=O)c2nccnc12 [Compound A75, (S)-6-(2,6-difluoro-4-(2-methyl-2H-indazol-4-yl)benzyl)-N-(1-hydroxy-3-methylbutan-2-yl)-5-oxo-5,6-dihydropyrido[3,4-b]pyrazine-8-carboxamide]
19 | 2.98 | 67 | – | 5 | Cn1cc(-c2ccc(Cn3cc(C(=O)N[C@H]4CCCCC[C@@H]4O)c4nccnc4c3=O)c(F)c2)cn1 [Compound A78, 6-(2-fluoro-4-(1-methyl-1H-pyrazol-4-yl)benzyl)-N-((1S,2S)-2-hydroxycycloheptyl)-5-oxo-5,6-dihydropyrido[3,4-b]pyrazine-8-carboxamide]
20 | 0.37 | 52 | > 10 | < 5 | Cn1cc(-c2ccc(Cn3cc(C(=O)N[C@H]4CCCC[C@@H]4O)c4ncccc4c3=O)cc2)cn1 [Compound A86, N-((1S,2S)-2-hydroxycyclohexyl)-6-(4-(1-methyl-1H-pyrazol-4-yl)benzyl)-5-oxo-5,6-dihydro-1,6-naphthyridine-8-carboxamide]
21 | 0.82 | 44 | > 10 | < 5 | Cn1cc(-c2ccc(Cn3cc(C(=O)N[C@H]4CCCCC[C@@H]4O)c4ncccc4c3=O)cc2)cn1 [Compound A87, N-((1S,2S)-2-hydroxycycloheptyl)-6-(4-(1-methyl-1H-pyrazol-4-yl)benzyl)-5-oxo-5,6-dihydro-1,6-naphthyridine-8-carboxamide]
